From the NIST ThermoML archive (doi:10.1016/j.jct.2006.09.007)

Experiments:
[1] = molar heat capacity at constant pressure; settings: 298.15 K; 101.33 kPa; Liquid; Flow calorimetry
[2] = 101.3 kPa, Liquid
[3] = xn = mol fraction of the nth substance listed; settings: 101.3 kPa, Liquid

CC(C)c1ccccc1 [isopropylbenzene]
Settings	molar heat capacity at constant pressure [J/K/mol]
[1]	214.75

[2]
Settings	mass density [kg/m3]
298.15 K	857.41
308.15 K	848.26

N#Cc1ccccc1 [benzonitrile] + COc1ccccc1
mass density [kg/m3], [3]
Settings	298.15 K	308.15 K
x1 = 0.0168	989.23	979.02
x1 = 0.0762	990.08	979.91
x1 = 0.1199	990.69	980.57
x1 = 0.2462	992.32	982.29
x1 = 0.3042	993.03	983.06
x1 = 0.3614	993.71	983.73
x1 = 0.5068	995.35	985.48
x1 = 0.5823	996.16	986.31
x1 = 0.6772	997.14	987.35
x1 = 0.7832	998.21	988.45
x1 = 0.9105	999.44	989.77
x1 = 1	1000.25	990.67

N#Cc1ccccc1 [benzonitrile]
Settings	molar heat capacity at constant pressure [J/K/mol]
[1]	166.41

[2]
Settings	mass density [kg/m3]
298.15 K	1000.25
308.15 K	990.67

Cc1cccc(C)c1 [1,3-dimethylbenzene] + N#Cc1ccccc1
[3], x2 = 0
Settings	mass density [kg/m3]
298.15 K	859.68
308.15 K	850.01

Cc1cccc(C)c1 [1,3-dimethylbenzene]
Settings	molar heat capacity at constant pressure [J/K/mol]
[1]	181.38

[2]
Settings	mass density [kg/m3]
298.15 K	859.68
308.15 K	850.01

CC(C)c1ccccc1 [isopropylbenzene] + N#Cc1ccccc1
[3], 298.15 K, Flow calorimetry
Settings	excess molar heat capacity [J/K/mol]
x2 = 0.0812	1.087
x2 = 0.1147	1.448
x2 = 0.2052	2.23
x2 = 0.3131	2.763
x2 = 0.3691	2.935
x2 = 0.4488	2.929
x2 = 0.5194	2.919
x2 = 0.6256	2.511
x2 = 0.6997	2.226
x2 = 0.8003	1.545
x2 = 0.9038	0.825
x2 = 0.9407	0.527

mass density [kg/m3], [3]
Settings	298.15 K	308.15 K
x2 = 0	857.41	848.26
x2 = 0.0581	864.33	855.15
x2 = 0.0865	867.75	858.59
x2 = 0.2036	882.15	872.93
x2 = 0.2835	892.28	883.09
x2 = 0.3445	900.22	891.02
x2 = 0.3887	906.07	896.85
x2 = 0.4445	913.59	904.41
x2 = 0.5627	930.2	920.94
x2 = 0.6557	943.85	934.41
x2 = 0.7271	954.72	945.3
x2 = 0.8102	967.92	958.51
x2 = 0.9017	983.11	973.75

Cc1cc(C)cc(C)c1 [1,3,5-trimethylbenzene]
Settings	molar heat capacity at constant pressure [J/K/mol]
[1]	207.43

[2]
Settings	mass density [kg/m3]
298.15 K	860.9
308.15 K	851.88

Cc1ccc(C)cc1 [1,4-dimethylbenzene] + N#Cc1ccccc1
[3], x2 = 0
Settings	mass density [kg/m3]
298.15 K	856.48
308.15 K	846.98

COc1ccccc1 [anisole]
Settings	molar heat capacity at constant pressure [J/K/mol]
[1]	191.54

[2]
Settings	mass density [kg/m3]
298.15 K	988.98
308.15 K	978.7

Cc1ccccc1C [1,2-dimethylbenzene] + N#Cc1ccccc1
[3], x2 = 0
Settings	mass density [kg/m3]
298.15 K	875.55
308.15 K	866.29

CCc1ccccc1 [ethylbenzene]
Settings	molar heat capacity at constant pressure [J/K/mol]
[1]	185.44

[2]
Settings	mass density [kg/m3]
298.15 K	862.41
308.15 K	852.72

N#Cc1ccccc1 [benzonitrile] + Cc1ccc(C)cc1
[3], 298.15 K, Flow calorimetry
Settings	excess molar heat capacity [J/K/mol]
x1 = 0.0349	0.303
x1 = 0.0918	0.681
x1 = 0.2035	1.281
x1 = 0.2559	1.362
x1 = 0.3682	1.534
x1 = 0.4313	1.443
x1 = 0.5014	1.374
x1 = 0.5905	1.132
x1 = 0.6663	0.966
x1 = 0.7646	0.664
x1 = 0.8402	0.453
x1 = 0.9222	0.168
x1 = 0.9776	0.082

mass density [kg/m3], [3]
Settings	x1 = 0.1009	x1 = 0.2247	x1 = 0.2938	x1 = 0.4357	x1 = 0.5627	x1 = 0.6605	x1 = 0.7646	x1 = 0.8328	x1 = 0.9439	x1 = 1
298.15 K	869.79	886.32	895.69	915.25	933.25	947.47	963.07	973.55	991.13	1000.25
308.15 K	860.32	876.88	886.28	905.85	923.86	938.07	953.65	964.15	981.68	990.67

Cc1cc(C)cc(C)c1 [1,3,5-trimethylbenzene] + N#Cc1ccccc1
[3], x2 = 0
Settings	mass density [kg/m3]
298.15 K	860.9
308.15 K	851.88

N#Cc1ccccc1 [benzonitrile] + CCc1ccccc1
[3]
Settings	excess molar heat capacity, 298.15 K [J/K/mol]	mass density, 298.15 K [kg/m3]	mass density, 308.15 K [kg/m3]
x1 = 0.0616	–	870.36	860.67
x1 = 0.0673	–	871.08	861.35
x1 = 0.0699	0.77	–	–
x1 = 0.1221	1.239	–	–
x1 = 0.1384	–	880.39	870.62
x1 = 0.219	1.824	–	–
x1 = 0.2367	–	893.17	883.4
x1 = 0.3021	2.096	–	–
x1 = 0.3478	2.184	–	–
x1 = 0.3726	–	911.19	901.43
x1 = 0.4424	2.181	–	–
x1 = 0.4563	–	922.38	912.65
x1 = 0.4991	–	928.14	918.47
x1 = 0.5151	2.098	–	–
x1 = 0.5903	–	940.59	931
x1 = 0.5925	1.917	–	–
x1 = 0.6379	1.786	–	–
x1 = 0.6935	–	955	945.46
x1 = 0.7404	1.395	–	–
x1 = 0.7801	–	967.39	957.85
x1 = 0.8033	1.119	–	–
x1 = 0.8857	0.666	–	–
x1 = 0.8862	–	983.01	973.45
x1 = 0.947	0.33	–	–
x1 = 0.9502	–	992.6	983.07
x1 = 1	–	1000.25	990.67

Cc1ccccc1C [1,2-dimethylbenzene]
Settings	molar heat capacity at constant pressure [J/K/mol]
[1]	187.28

[2]
Settings	mass density [kg/m3]
298.15 K	875.55
308.15 K	866.29

Cc1ccc(C)c(C)c1 [1,2,4-trimethylbenzene]
Settings	molar heat capacity at constant pressure [J/K/mol]
[1]	213.02

[2]
Settings	mass density [kg/m3]
298.15 K	871.56
308.15 K	862.53

CCc1ccccc1 [ethylbenzene] + N#Cc1ccccc1
[3], x2 = 0
Settings	mass density [kg/m3]
298.15 K	862.41
308.15 K	852.72
